What all share (assay type): in vivo
The subject of test [1] is diamondback moth (Plutella xylostella). Kind of test: Test method 4: sprayed cabbage leaves, 2nd instar larvae of diamondback moth (Formulation Example 1). The conditions noted are these: 120 h, Test Example 4-1, spray 20 mL/seedling, after 5 days, 25°C. As for the experimental part:
(§1) Each test compound is formulated according to the method mentioned in Formulation Example 1 to obtain each formulation, and water containing 0.03% by volume of Shindaine (registered trademark) is added thereto to prepare a diluted solution containing a prescribed concentration of each test compound.
Each of the diluted solutions is sprayed over cabbage (Brassicae oleracea) seedlings (on the developmental stage of the second to third true leaf) planted in a container in a ratio of 20 mL/seedling. Thereafter, the stem and leaf of the seedlings are cut out, and placed in a container lined with a filter paper. Five 2nd instar larvae of diamondback moth (Plutella xylostella) are released into the container. After 5 days, the number of the surviving insects is counted, and the mortality of insects is calculated by the following equation. [formula]
The test was carried out by making the prescribed concentration 500 ppm and using the following present compounds as a test compound according to the test method 4.

For test [2], the system named is houseflies (Musca domestica). As to the kind of experiment: Test method 8: coated container contact test, adult male houseflies. The conditions noted are these: 24 h, read-out: mortality of insects. Here is the method:
An acetone solution prepared by making the concentration of the test compound 800 ppm is poured into a 20 mL container, and the inner face of the container is uniformly coated with the test compound so as to make the coating amount of 40 mg/m^2, followed by drying.
Five adult male houseflies (Musca domestica) are released into the container, and the container is then covered with a lid. After the prescribed time is elapsed, the state of the houseflies are examined. The mortality of insects is calculated by the following equation. [formula]
The test was carried out by making the prescribed elapsed time 1 day and using the following present compounds as a test compound according to the test method 8.

For test [3], the system named is common cutworm (Spodoptera litura). Kind of test: Test method 9: sprayed cabbage seedlings, 3rd instar larvae of common cutworm (Formulation Example 5). The conditions noted are these: 144 h, Test Example 9-1, spray 20 mL/seedling, after 6 days, 25°C. As for the experimental part: (§2) Each test compound is formulated according to the method mentioned in Formulation Example 5 to obtain each formulation, and water containing 0.03% by volume of Shindaine (registered trademark) is added thereto to prepare a diluted solution containing a prescribed concentration of each test compound.
Each of the diluted solutions is sprayed over cabbage (Brassicae oleracea) seedlings (on the developmental stage of the third to fourth true leaf) planted in a container in a ratio of 20 mL/seedling. Thereafter, ten 3rd instar larvae of common cutworm (Spodoptera litura) are released into the container. After 6 days, the number of the surviving insects is counted and the mortality of insects is calculated by the following equation. [formula]
The test was carried out by making the prescribed concentration 200 ppm and using the following present compounds as a test compound according to the test method 9.

Test [4] deals with cotton aphids (Aphis gossypii). As to the kind of experiment: Test method 1: spray on cucumber seedlings infested with cotton aphids (Formulation Example 1). The conditions noted are these: 120 h, Test Example 1-1, spray 10 mL/seedling, 5 days after spraying, 25°C, read-out: control value. As for the experimental part: as §1
Approximately 30 cotton aphids (Aphis gossypii) (all stages of life) are released onto cucumber (Cucumis sativus) seedlings (on the developmental stage of the second true leaf) planted in a container. After 1 day, each of the diluted solutions is sprayed over the seedlings in a ratio of 10 mL/seedling. After additional 5 days, the number of the surviving insects is examined and the control value is calculated by the following equation. Control value (%) = {1−(Cb×Tai)/(Cai×Tb)} × 100 [formula] where symbols in the equation represent the following meanings: • Cb: Number of test insects in non-treated area; • Cai: Number of surviving insects at the time of the investigation in non-treated area; • Tb: Number of test insects in treated area; and • Tai: Number of surviving insects at the time of the investigation in treated area.
Here, the "non-treated area" represents an area where the same treatment procedure as that of the treated area is carried out except for not using each test compound.
The test was carried out by making the prescribed concentration 500 ppm and using the following present compounds as a test compound according to the test method 1.

Test [5] has as its system German cockroach (Blattella germanica). Kind of test: Test method 6: coated container contact test, German cockroach male adults. The conditions noted are these: 72 h, read-out: mortality of insects. Here is the method: An acetone solution prepared by making the concentration of the test compound 800 ppm is poured into a 50 mL container, and the inner face of the container is uniformly coated with the test compound so as to make the coating amount of 40 mg/m^2, followed by drying.
Five German cockroach (Blattella germanica) male adults are released into the container, and the container is then covered with a lid. After the prescribed time is elapsed, the state of the German cockroach are examined. The mortality of insects is calculated by the following equation. [formula]
The test was carried out by making the prescribed elapsed time 3 days and using the following present compounds as a test compound according to the test method 6.

Test [6] has as its system western corn rootworm (Diabrotica virgifera virgifera). Kind of test: whole plant or invertebrate. The conditions noted are these: 120 h. As for the experimental part:
Each test compound is dissolved in 50 µL of a mixed solution of polyoxyethylene sorbitan monococoate and acetone (at a volume ratio of 5:95) per 1 mg of the test compound. Water containing 0.03% by volume of Shindaine (registered trademark) is added thereto to prepare a diluted solution containing a prescribed concentration of each test compound.
Young seedlings of corns (Zea mays) are immersed in each of the diluted solutions for 30 seconds. Thereafter, two seedlings are placed in a petri dish (diameter: 90 mm), and ten 2nd instar larvae of western corn rootworm (Diabrotica virgifera virgifera) are released into the dish. After 5 days, the number of the […] is counted, and the mortality of insects is calculated by the following equation. Mortality (%) = (1−Numberofdeadinsects/10) × 100 [formula]
The test was carried out by making the prescribed concentration 200 ppm and using the following present compounds as a test compound according to the test method 5.

Test [7] deals with diamondback moth (Plutella xylostella). Kind of test: Test method 10: sprayed cabbage seedlings, 3rd instar larvae of diamondback moth (Formulation Example 5). The settings on record: 120 h, spray 20 mL/seedling, after 5 days, 25°C; for mortality at 200 ppm: Test Example 10-1, 200 ppm; for mortality at 50 ppm: Test Example 10-2, 50 ppm. As for the experimental part:
as §2
Each of the diluted solutions is sprayed over cabbage (Brassicae oleracea) seedlings (on the developmental stage of the third to fourth true leaf) planted in a container in a ratio of 20 mL/seedling. Thereafter, ten 3rd instar larvae of diamondback moth (Plutella xylostella) are released into the container. After 5 days, the number of the surviving insects is counted, and the mortality of insects is calculated by the following equation. [formula]
The test was carried out by making the prescribed concentration 200 ppm and using the following present compounds as a test compound according to the test method 10.
The test was carried out by making the prescribed concentration 50 ppm and using the following present compounds as a test compound according to the test method 10.

The test system of test [8] is common cutworm (Spodoptera litura). As to the kind of experiment: Test method 3: sprayed cabbage leaves, 2nd instar larvae of common cutworm (Formulation Example 1). The conditions noted are these: 120 h, Test Example 3-1, spray 20 mL/seedling, after 5 days, 25°C. As for the experimental part: as §1
Each of the diluted solutions is sprayed over cabbage (Brassicae oleracea) seedlings (on the developmental stage of the second to third true leaf) planted in a container in a ratio of 20 mL/seedling. Thereafter, the stem and leaf of the seedlings are cut out, and placed in a container lined with a filter paper. Five 2nd instar larvae of common cutworm (Spodoptera litura) are released into the container. After 5 days, the number of the surviving insects is counted, and the mortality of insects is calculated by the following equation. [formula]
The test was carried out by making the prescribed concentration 500 ppm and using the following present compounds as a test compound according to the test method 3.

Test [9] relates to cotton aphids (Aphis gossypii). As to the kind of experiment: whole plant or invertebrate. The conditions noted are these: topical, 120 h, read-out: control value. Here is the method:
Each test compound is formulated according to the method mentioned in Formulation Example 5 to obtain each formulation, and water containing 0.03% by volume of […] (registered trademark) is added thereto to prepare a diluted solution containing a prescribed concentration of each test compound. Approximately thirty cotton aphids (Aphis gossypii) (all stages of life) are released onto cucumber (Cucumis sativus) seedlings (on the developmental stage of the second true leaf) planted in a container. After 1 day, each of the diluted solutions is sprayed over the seedlings in a ratio of 10 mL/seedling. After additional 5 days, the number of the surviving insects is examined and the control value is calculated by the following equation. Control value (%) = {1-(Cb×Tai)/(Cai×Tb)} × 100 [formula] where symbols in the equation represent the following meanings: • Cb: Number of test insects in non-treated area; • Cai: Number of surviving insects at the time of the investigation in non-treated area; • Tb: Number of test insects in treated area; and • Tai: Number of surviving insects at the time of the investigation in treated area. Here, the "non-treated area" represents an area where the same treatment procedure as that of the treated area is carried out except for not using each test compound. The test was carried out by making the prescribed concentration 200 ppm and using the following present compounds as a test compound according to the test method 11. […] The test was carried out by making the prescribed concentration 50 ppm and using the following present compounds as a test compound according to the test method 11.

Test [10] concerns common house mosquito (Culex pipiens pallens). As to the kind of experiment: Test method 12: final instar larvae of common house mosquito released into diluted solution. The conditions noted are these: 24 h, read-out: control value. As for the experimental part: Each test compound is formulated according to the method mentioned in Formulation Example 1 to obtain each formulation, and water is added thereto to prepare a diluted solution containing a prescribed concentration of each test compound.
Thirty final instar larvae of common house mosquito (Culex pipiens pallens) are released into the diluted solution and, after 1 day, the state of the common house mosquito larvae is examined and the mortality of insects is calculated by the following equation. [formula]
The test was carried out by making the prescribed concentration 3.5 ppm and using the following present compounds as a test compound according to the test method 12.

Consider `CNS(=O)(=O)c1c(-c2cnc(OCC(F)(F)C(F)(F)F)cn2)nc2ccc(Br)cn12` [compound 1], for which the mortality at 500 ppm was at least 80% in test [1], at least 90% in [4] and at least 80% in test [8]. The mortality at 40 mg/m2, 40 mg/m2 in test [2] and in test [5] was at least 80% in each case. Moreover, the mortality at 200 ppm in [3] was at least 80%; in test [6], at least 80%; in test [7], at least 80%; in [9], at least 90%. The mortality at 50 ppm in test [7] was at least 80%; in test [9], at least 90%. For the same compound, in [10], the mortality at 3.5 ppm is at least 90%.

Regarding `CCNS(=O)(=O)c1c(-c2cnc(OCC(F)(F)C(F)(F)F)cn2)nc2ccc(Br)cn12` [compound 2], the mortality at 500 ppm in [1] was at least 80%; in [4], at least 90%; in test [8], at least 80%. The mortality at 40 mg/m2, 40 mg/m2 in [2] and in test [5] was at least 80% throughout. Also, the mortality at 200 ppm in test [3] was at least 80%; in [6], at least 80%; in [7], at least 80%; in test [9], at least 90%. Moreover, the mortality at 50 ppm in test [7] was at least 80%; in test [9], at least 90%. In addition, the mortality at 3.5 ppm in [10] is at least 90%.

Turning to `CNS(=O)(=O)c1c(-c2ccc(OCC(F)(F)C(F)F)nn2)nc2ccc(I)cn12` [compound 3], the mortality at 500 ppm is at least 80% in test [1], at least 90% in test [4] and at least 80% in test [8]. Also, the mortality at 200 ppm was at least 80% in test [3], at least 80% in test [6], at least 80% in test [7] and at least 90% in test [9]. The values for the mortality at 50 ppm in [7] and in test [9] were at least 80% and at least 90%, respectively.

For the compound `CN(C)S(=O)(=O)c1c(-c2ccc(OCC(F)(F)C(F)F)nn2)nc2ccc(I)cn12` [compound 4], the mortality at 500 ppm in test [1] was at least 80%; in [4] it was at least 90%; in test [8], at least 80%. The mortality at 200 ppm in test [3] and in test [7] was at least 80% in each case. Besides, in test [7], the mortality at 50 ppm was at least 80%.
